Assays:
[1] = target: rAT2R (Rattus norvegicus (Rat), UniProt P35351); assay: Rat binding affinity, competitive radioligand binding assay (SPA), rAT2R HEK293 membranes; conditions: rat AT2R
Method: Membrane Preparation Protocol (hAT2R HEK293 and rAT2R HEK293)
(§1) Receptor Binding Protocol
(§2) The assays were performed with a scintillation proximity assay (SPA) method using polyvinyltoluene (PVT) wheat germ agglutinin-coupled SPA beads (Perkin Elmer Cat. #RPNQ0001). Assay buffer containing BSA (50 mM Tris-HCl, pH 7.5, 150 mM NaCl, 0.1% w/v fatty-acid free BSA) was used for preparing radioligand, membrane and SPA bead reagent dilution to working stock concentrations. Reference control and test compounds were diluted to obtain ten-point concentration response curves using a four-fold serial dilution protocol onto assay plates, dispensed acoustically from DMSO stock using automated ECHO instrument technology (Labcyte, Inc.). Concentration response curves were routinely generated with the highest final assay concentration for the reference angiotensin-II control at 50 nM, and the highest final assay concentration for the test compounds at 50 μM. […] The hAT2R membrane was combined with PVT-WGA SPA beads to obtain a final assay concentration of 0.25 μg/well hAT2R membrane+0.1 mg/well PVT-WGA SPA bead. And the hAT1R membrane PVT-WGA SPA bead final concentrations was 0.5 μg/well hAT1R membrane+0.1 mg/well PVT-WGA SPA bead. […] For all assays, radioligand addition was followed by the addition of membrane-SPA bead mixture, i.e., the hAT2R membrane-SPA bead mixture (30 μL), the rAT2R membrane-SPA bead mixture, or the AT1R membrane-SPA bead mixture (30 μL) into the assay plate. All dispensing steps were added using a Multiflo FX (Biotek, Inc.) bulk dispensing instrument. After reagent addition steps, assay plates were sealed, and plate contents mixed for one minute on a benchtop micro-plate shaker. Following a 10-hour incubation at room temperature to allow for bead settling and radioligand binding, bound radioactivity was quantitated using a Microbeta Trilux scintillation counter (Perkin Elmer) and expressed as counts per minute (CPM). The unlabeled angiotensin-II control was included on each plate as an experimental assay reference.
(§3) Compounds were tested in a 10-point concentration response curve (CRC) format, with each plate containing the positive control angiotensin-II positive reference compound, and experimental compounds. Maximum binding response (Max) was determined in 32 control wells per plate using assay buffer treatment only, and the minimum binding controls or nonspecific binding response (Min) was also determined in 32 wells per plate by the treatment with 50 nM angiotensin-II. All test sample concentration responses were normalized to the control response and calculated as a percent of the maximal response after correcting for nonspecific binding as shown below: % Specific inhibition=100%−[(CPM−Min)/(Max−Min)×100%]
(§4) Percent specific binding (y-axis) was plotted versus the log concentration of compound (x-axis).

[2] = target: T1, AT2R (Rattus norvegicus (Rat), UniProt P35351); assay: AT2R ex vivo autoradiography receptor occupancy in rat adrenal sections after oral dosing; parameters: species or system Sprague Dawley rats; conditions: for IC50 / IC80: plasma concentration plotted vs % receptor occupancy, rat; for receptor occupancy at 10 mg/kg: oral dose 10 mg/kg; for receptor occupancy at 30 mg/kg: oral dose 30 mg/kg; for receptor occupancy at 100 mg/kg: oral dose 100 mg/kg; for ex vivo IC50 (TER) / ex vivo IC80 (TER): rat receptor occupancy; for receptor occupancy at 3 mg/kg: oral dose 3 mg/kg
Method: The ability for a compound to engage its target may be measured by determining compound's receptor occupancy. An ex vivo autoradiography assay was conducted as described herein.
Twenty male Sprague Dawley rats (140-150 gms, Envigo) were maintained under controlled laboratory conditions on a 12 hr light cycle with ad lib access to food and water. […] Following a pre-determined survival time, plasma and adrenals were collected and frozen at −80° C. until analyzed. Frozen 20 μm sections of an adrenal from each animal were collected onto gelatin-coated slides and stored at −80° C. […] The specific ligand binding for each animal is calculated by subtracting the non-specific binding from the total bound.

[3] = Plasma concentration of test compound in the receptor occupancy study; assay type: in vivo, Sprague Dawley rats; conditions: rat
Method: Twenty male Sprague Dawley rats (140-150 gms, Envigo) were maintained under controlled laboratory conditions on a 12 hr light cycle with ad lib access to food and water. On the morning of the experiment, rats were orally dosed with vehicle (1% (w/v) hydroxyethylcellulose, 0.25% (w/v) polysorbate 80, 0.05% (v/v) antifoam 1510-US in purified water) or appropriate doses of test compound (5 mL/kg, n=4 rats/group) using the same vehicle. Following a pre-determined survival time, plasma and adrenals were collected and frozen at −80° C. until analyzed. Frozen 20 μm sections of an adrenal from each animal were collected onto gelatin-coated slides and stored at −80° C. Autoradiography to detect AT2R occupancy (RO) was conducted under cold conditions using methods modified from F. M. J. Heemskerk, et al, Brain Research 677 (1995) 29-38. Total binding was defined by 0.3 nM ^125I-CGP42112 (selective AT2R agonist, Perkin Elmer, Inc) with the addition of 10 μM unlabeled AngII used to define non-specific binding. Following exposure to a phosphoimager plate (BAS TR2025, GE Healthcare), the bound radioactivity is calculated with use of MCID software (Imaging Research, Inc) and calibrated ^125I standards (American Radiolabeled Chemicals, Inc). The specific ligand binding for each animal is calculated by subtracting the non-specific binding from the total bound.

[4] = target: T1, AT2R; assay: Inhibition of C21-induced increase in dermal blood flow (laser Doppler imaging); assay type: in vivo, Sprague Dawley rats
[5] = target: recombinant human angiotensin-II receptor subtype 2 (hAT2R) (Homo sapiens (Human), UniProt P50052); assay: Competitive radioligand binding assay (SPA), hAT2R HEK293 membranes; conditions: [125I]-Tyr4-Angiotensin-II, read-out: AT2R Ki
Outline: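 SPA competition binding on membranes from HEK293 cells stably transfected with hAT2R (0.25 μg/well, with 0.1 mg/well PVT-WGA beads) in 50 mM Tris-HCl pH 7.5, 150 mM NaCl, 0.1% fatty-acid-free BSA. Ten-point four-fold dilution curves ran from 50 μM top final concentration. Bound radioactivity was counted (CPM) after 10 h at room temperature.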

[6] = target: recombinant human angiotensin-II receptor subtype I (hAT1R) (Homo sapiens (Human), UniProt P30556); assay: Competitive radioligand binding assay (SPA), hAT1R/CHO membranes; conditions: [125I]-Tyr4-Angiotensin-II, read-out: AT1R Ki
Method: Membranes hATIR/CHO were Purchased from PerkinElmer, Inc.
Cellular membranes prepared from Chinese hamster ovary (CHO) cells which expressed recombinant human angiotensin-II receptor subtype I (hAT1R), were purchased from PerkinElmer (Catalog Number ES-072-M400UA).
as §1, §2, §3, §4
Binding affinities for compounds of the present disclosure were determined according to the assay described herein.
Binding affinities for compounds of the present disclosure were determined according to the assay described above.

T1 sequence (P35351 whole entry): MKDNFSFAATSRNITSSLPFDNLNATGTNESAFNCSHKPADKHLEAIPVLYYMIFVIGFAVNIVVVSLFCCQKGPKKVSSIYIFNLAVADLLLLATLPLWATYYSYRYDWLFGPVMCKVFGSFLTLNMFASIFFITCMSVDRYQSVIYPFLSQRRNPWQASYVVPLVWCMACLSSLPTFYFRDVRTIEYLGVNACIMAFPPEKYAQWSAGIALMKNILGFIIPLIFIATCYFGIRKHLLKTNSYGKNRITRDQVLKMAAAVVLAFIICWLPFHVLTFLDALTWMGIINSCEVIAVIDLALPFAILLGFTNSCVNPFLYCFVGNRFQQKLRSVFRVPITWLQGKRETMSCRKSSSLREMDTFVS
rAT2R, sequence (P35351 whole entry): as above
recombinant human angiotensin-II receptor subtype I (hAT1R), sequence (P30556 whole entry): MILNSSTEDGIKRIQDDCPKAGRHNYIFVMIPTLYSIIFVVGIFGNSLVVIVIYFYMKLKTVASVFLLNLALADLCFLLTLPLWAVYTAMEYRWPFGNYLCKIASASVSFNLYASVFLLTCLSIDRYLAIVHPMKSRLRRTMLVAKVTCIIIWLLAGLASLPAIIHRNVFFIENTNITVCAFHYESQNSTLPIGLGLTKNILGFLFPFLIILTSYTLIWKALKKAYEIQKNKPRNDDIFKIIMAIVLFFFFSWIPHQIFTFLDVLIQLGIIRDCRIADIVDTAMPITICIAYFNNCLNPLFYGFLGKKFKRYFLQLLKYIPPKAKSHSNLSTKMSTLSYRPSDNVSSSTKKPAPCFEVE
recombinant human angiotensin-II receptor subtype 2 (hAT2R), sequence (P50052 whole entry): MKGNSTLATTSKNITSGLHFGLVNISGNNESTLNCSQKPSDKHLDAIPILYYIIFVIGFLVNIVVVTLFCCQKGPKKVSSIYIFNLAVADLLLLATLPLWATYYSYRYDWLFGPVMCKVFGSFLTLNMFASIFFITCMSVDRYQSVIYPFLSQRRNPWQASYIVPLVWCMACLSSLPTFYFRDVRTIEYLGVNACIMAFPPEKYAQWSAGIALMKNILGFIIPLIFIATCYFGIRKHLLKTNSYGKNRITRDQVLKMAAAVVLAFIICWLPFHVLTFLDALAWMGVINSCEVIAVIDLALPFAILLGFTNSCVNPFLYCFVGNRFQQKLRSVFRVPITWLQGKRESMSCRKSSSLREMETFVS

COc1ccc2c(c1OCc1ccccc1)C[C@@H](C(=O)O)N(C(=O)C(c1ccccc1)c1ccccc1)C2 [EMA401, Olodanrigan, reference compound]
Ki [1]: 4.47 nM | IC50 [2]: 0.483 nM | IC80 [2]: 3.03 nM | receptor occupancy at 10 mg/kg ([2]; rat adrenal, read-out: % RO): 17.3% | receptor occupancy at 30 mg/kg ([2]; rat adrenal, read-out: % RO): 84.7% | receptor occupancy at 100 mg/kg ([2]; rat adrenal, read-out: % RO): 93.7% | ex vivo IC50 (TER) [2]: 0.108 TER | ex vivo IC80 (TER) [2]: 0.678 TER | [plasma, free, nM] ([3]; oral dose 1 mg/kg): 6.39 nM | [plasma, free, nM] ([3]; oral dose 3 mg/kg): 18.9 nM | [plasma, free, nM] ([3]; oral dose 30 mg/kg): 6.28 nM | [plasma, free, nM] ([3]; oral dose 100 mg/kg): 15.7 nM | inhibition at 1 mg/kg ([4]; dose 1 mg/kg, C21-induced increase in dermal blood flow): 7.8% | inhibition at 3 mg/kg ([4]; dose 3 mg/kg, C21-induced increase in dermal blood flow): 47.2% | inhibition at 10 mg/kg ([4]; dose 10 mg/kg, C21-induced increase in dermal blood flow): 67.6% | inhibition at 30 mg/kg ([4]; C21-induced increase in dermal blood flow): 86.9% | inhibition at 30 mg/kg ([4]; second, unlabelled column under % Inhibition): 97.3%

CN(C(=O)N1CCC(CC(=O)N(c2cccc(F)c2)C2CCCC(F)(F)C2)(C(=O)O)CC1)c1ccccc1 (racemic) [Example 53, 4-[2-(N-(3,3-difluorocyclohexyl)-3-fluoro-anilino)-2-oxo-ethyl]-1-[methyl(phenyl)carbamoyl]piperidine-4-carboxylic acid]
Ki [5]: 0.342 nM | Ki [6]: 37300 nM

CN(C(=O)N1CCC(CC(=O)N(c2ccccc2)c2ccc(F)cc2)(C(=O)O)CC1)c1ccc(F)cc1 [compound 30, 4-[2-(N-(4-fluorophenyl)anilino)-2-oxo-ethyl]-1-[(4-fluorophenyl)-methyl-carbamoyl]piperidine-4-carboxylic acid]
Ki [1]: 0.6 nM | receptor occupancy at 0.01 mg/kg ([2]; rat adrenal, oral dose 0.01 mg/kg, read-out: % RO): 30.4% | receptor occupancy at 0.03 mg/kg ([2]; rat adrenal, oral dose 0.03 mg/kg, read-out: % RO): 3.46% | receptor occupancy at 0.3 mg/kg ([2]; rat adrenal, oral dose 0.3 mg/kg, read-out: % RO): 45.6% | receptor occupancy at 3 mg/kg ([2]; rat adrenal, read-out: % RO): 88.7%

CCCCCN(C)C(=O)N1CCC(CC(=O)N(c2ccccc2)c2ccccc2)(C(=O)O)CC1 [Example 1, 1-[methyl(pentyl)carbamoyl]-4-[2-oxo-2-(N-phenylanilino)ethyl]piperidine-4-carboxylic acid]
Ki [1]: 28.2 nM | IC50 [2]: 5.64 nM | IC80 [2]: 22.6 nM | receptor occupancy at 3 mg/kg ([2]; rat adrenal, read-out: % RO): 23.4% | receptor occupancy at 10 mg/kg ([2]; rat adrenal, read-out: % RO): 44.6% | receptor occupancy at 30 mg/kg ([2]; rat adrenal, read-out: % RO): 41.6% | receptor occupancy at 100 mg/kg ([2]; rat adrenal, read-out: % RO): 54.6% | ex vivo IC50 (TER) [2]: 0.200 TER | ex vivo IC80 (TER) [2]: 0.800 TER | [plasma, free, nM] ([3]; oral dose 3 mg/kg): 0.729 nM | [plasma, free, nM] ([3]; oral dose 10 mg/kg): 2.25 nM | [plasma, free, nM] ([3]; oral dose 30 mg/kg): 6.42 nM | [plasma, free, nM] ([3]; oral dose 100 mg/kg): 10.4 nM

CC(C)(C(=O)N1CCC(CC(=O)N(c2ccccc2)C2CCCC(F)(F)C2)(C(=O)O)CC1)c1ccccc1F (racemic) [Example 67, 4-[2-(N-(3,3-difluorocyclohexyl)anilino)-2-oxo-ethyl]-1-[2-(2-fluorophenyl)-2-methyl-propanoyl]piperidine-4-carboxylic acid]
Ki [5]: 2.31 nM | Ki [6]: 37300 nM

O=C(CC1(C(=O)O)CCN(c2ccccn2)CC1)N(c1ccccc1)C1CCCC(F)(F)C1 (single isomer, unassigned) [Example 74B, 4-(2-((3,3-difluorocyclohexyl)(phenyl)amino)-2-oxoethyl)-1-(pyridin-2-yl)piperidine-4-carboxylic acid]
Ki [5]: 1.28 nM | Ki [6]: > 49900 nM | Ki [1]: 0.67 nM | IC50 [2]: 1.58 nM | IC80 [2]: 3.82 nM | ex vivo IC50 (TER) [2]: 2.358 TER | ex vivo IC80 (TER) [2]: 5.701 TER

O=C(CC1(C(=O)O)CCN(C(=O)C2(c3ccccc3F)CC2)CC1)N(c1ccccc1)C1CCCC(F)(F)C1 (racemic) [Example 66, 4-[2-(N-(3,3-difluorocyclohexyl)anilino)-2-oxo-ethyl]-1-[1-(2-fluorophenyl)cyclopropanecarbonyl]piperidine-4-carboxylic acid]
Ki [5]: 0.619 nM | Ki [6]: 37300 nM

CN(C(=O)N1CCC(CC(=O)N(c2ccccc2)c2ccccc2)(C(=O)O)CC1)c1ccc(F)cc1 [Example 2, 1-[(4-fluorophenyl)-methyl-carbamoyl]-4-[2-oxo-2-(N-phenylanilino)ethyl]piperidine-4-carboxylic acid]
Ki [6]: 37300 nM | [plasma, free, nM] ([3]; oral dose 0.01 mg/kg): 0.0697 nM | [plasma, free, nM] ([3]; oral dose 0.03 mg/kg): 0.0403 nM | [plasma, free, nM] ([3]; oral dose 0.3 mg/kg): 0.153 nM | [plasma, free, nM] ([3]; oral dose 3 mg/kg): 0.772 nM

CN(C(=O)N1CCC(CC(=O)N(c2ccccc2)[C@H]2CCCC(F)(F)C2)(C(=O)O)CC1)c1ccc(F)cc1 (single isomer, unassigned) [44B (isomer 2)]
Ki [6]: 37300 nM

O=C(N1CCC(CC(=O)N(c2ccccc2)C2CCCC(F)(F)C2)(C(=O)O)CC1)N1CCc2ccccc21 (single isomer, unassigned) [Example 35B, 4-[2-(N-(3,3-difluorocyclohexyl)anilino)-2-oxo-ethyl]-1-(indoline-1-carbonyl)piperidine-4-carboxylic acid]
Ki [5]: 1.03 nM | Ki [6]: 37300 nM

N#Cc1ccc2c(c1)N(C(=O)N1CCC(CC(=O)N(c3ccccc3)C3CCCC(F)(F)C3)(C(=O)O)CC1)CC2 (racemic) [Example 47, 1-(6-cyanoindoline-1-carbonyl)-4-[2-(N-(3,3-difluorocyclohexyl)anilino)-2-oxo-ethyl]piperidine-4-carboxylic acid]
Ki [5]: 1.34 nM | Ki [6]: 37300 nM

O=C(N1CCC(CC(=O)N(c2ccccc2)C2CCCC(F)(F)C2)(C(=O)O)CC1)N1CCc2ccccc21 (racemic) [Example 35, 4-[2-(N-(3,3-difluorocyclohexyl)anilino)-2-oxo-ethyl]-1-(indoline-1-carbonyl)piperidine-4-carboxylic acid]
Ki [5]: 2.79 nM | Ki [6]: 37300 nM

— patent US12122750B2, “AT2R antagonists and uses thereof” (Eli Lilly and Company, priority 2022, dated 2024)
